Results taken from patent US20240228458A1, “PYRIMIDINE DERIVATIVE HAVING PROTEIN KINASE INHIBITORY ACTIVITY, AND THERAPEUTIC PHARMACEUTICAL COMPOSITION COMPRISING SAME” (THERAPEX CO., LTD., priority 2021, published 2024).

Experiments:
Assay type in all cases: cell-based
[1] = test system: Ba/F3 cells expressing EGFR-wt; experiment: Growth inhibition (GI50) of Ba/F3 cells expressing EGFR-wt, Celltiter glo; conditions: Mus musculus, BaF3, 72 h
How it was run: (§1)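 Antiproliferative activity was assessed in EGFR-mutant or wild-type Ba/F3 cells over 72 h at 37 °C with 5% CO2. Cell viability was determined by CellTiter-Glo, and GI50 taken as the compound concentration inhibiting growth by 50%.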

[2] = test system: Ba/F3 cells expressing del19/T790M/C797S (EGFR-DTC); experiment: Growth inhibition (GI50) of Ba/F3 cells expressing del19/T790M/C797S (EGFR-DTC), Celltiter glo; conditions: Mus musculus, BaF3, 72 h
How it was run: as §1

[3] = test system: Ba/F3 cells expressing L858R/T790M/C797S (EGFR-LTC); experiment: Growth inhibition (GI50) of Ba/F3 cells expressing L858R/T790M/C797S (EGFR-LTC), Celltiter glo; conditions: Mus musculus, BaF3, 72 h
How it was run: as §1

[4] = test system: Ba/F3 cells expressing del19/T790M (EGFR-DT); experiment: Growth inhibition (GI50) of Ba/F3 cells expressing del19/T790M (EGFR-DT), Celltiter glo; conditions: Mus musculus, BaF3, 72 h
How it was run: as §1

[5] = test system: Ba/F3 cells expressing L858R/T790M (EGFR-LT); experiment: Growth inhibition (GI50) of Ba/F3 cells expressing L858R/T790M (EGFR-LT), Celltiter glo; conditions: Mus musculus, BaF3, 72 h
How it was run: as §1

parental Ba/F3 cell line = experiment: Growth inhibition (GI50) of the parental Ba/F3 cell line (not introduced with EGFR variants), Celltiter glo; conditions: Mus musculus, BaF3, 72 h, parental Ba/F3 cells
How it was run: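 Parental Ba/F3 cells (100,000 cells/ml) were treated with 10-point, 4-fold compound dilutions (0.5% DMSO; top stock 2 mM) for 72 h at 37 °C, 5% CO2. Viability was read by CellTiter-Glo; GI50 is the concentration (μM) giving 50% growth inhibition.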

Row | SMILES | GI50 [1] [nM] | GI50 [2] [nM] | GI50 [3] [nM] | GI50 [4] [nM] | GI50 [5] [nM] | GI50 (parental Ba/F3 cell line) [nM]
1 | CN1CCN(C2CCN(c3ncc(Nc4ncc(Br)c(Nc5cc6c(cc5NS(C)(=O)=O)CCO6)n4)cc3F)CC2)CC1 [Example 239, N-(6-((5-bromo-2-((5-fluoro-6-(4-(4-methylpiperazin-1-yl)piperidin-1-yl)pyridin-3-yl)amino)pyrimidin-4-yl)amino)-2,3-dihydrobenzofuran-5-yl)methanesulfonamide] | 500 to 2000 | 500 to 2000 | 100 to 500 | 25 to 100 | 25 to 100 | 2000 to 10000
2 | COc1nc(N2CCC(N3CCN(C)CC3)CC2)c(C)cc1Nc1ncc(Br)c(Nc2cc3c(cc2NS(C)(=O)=O)CCO3)n1 [Example 240, N-(6-((5-bromo-2-((2-methoxy-5-methyl-6-(4-(4-methylpiperazin-1-yl)piperidin-1-yl)pyridin-3-yl)amino)pyrimidin-4-yl)amino)-2,3-dihydrobenzofuran-5-yl)methanesulfonamide] | 500 to 2000 | 100 to 500 | 1 to 25 | 100 to 500 | 1 to 25 | 2000 to 10000
3 | COc1nc(N2CCC(N3CCN(C)CC3)CC2)c(C)cc1Nc1ncc(Cl)c(Nc2cc3c(cc2NS(C)(=O)=O)CCO3)n1 [Example 241, N-(6-((5-chloro-2-((2-methoxy-5-methyl-6-(4-(4-methylpiperazin-1-yl)piperidin-1-yl)pyridin-3-yl)amino)pyrimidin-4-yl)amino)-2,3-dihydrobenzofuran-5-yl)methanesulfonamide] | 500 to 2000 | 100 to 500 | 25 to 100 | 100 to 500 | 1 to 25 | 2000 to 10000
4 | CN1CCN(C2CCN(c3ncc(Nc4ncc(Cl)c(Nc5cc6c(cc5NS(C)(=O)=O)CCO6)n4)cc3F)CC2)CC1 [Example 242, N-(6-((5-chloro-2-((5-fluoro-6-(4-(4-methylpiperazin-1-yl)piperidin-1-yl)pyridin-3-yl)amino)pyrimidin-4-yl)amino)-2,3-dihydrobenzofuran-5-yl)methanesulfonamide] | 2000 to 10000 | 2000 to 10000 | 25 to 100 | 500 to 2000 | 1 to 25 | 2000 to 10000
5 | COc1cc(N2CCC(N3CCN(C)CC3)CC2)ccc1Nc1ncc(Br)c(Nc2cc3c(cc2NS(C)(=O)=O)CCO3)n1 [Example 243, N-(6-((5-bromo-2-((2-methoxy-4-(4-(4-methylpiperazin-1-yl)piperidin-1-yl)phenyl)amino)pyrimidin-4-yl)amino)-2,3-dihydrobenzofuran-5-yl)methanesulfonamide] | 500 to 2000 | 100 to 500 | 1 to 25 | 100 to 500 | 1 to 25 | 2000 to 10000
6 | CN1CCN(C2CCN(c3ccc(Nc4ncc(Br)c(Nc5cc6c(cc5NS(C)(=O)=O)CCO6)n4)cc3F)CC2)CC1 [Example 244, N-(6-((5-bromo-2-((3-fluoro-4-(4-(4-methylpiperazin-1-yl)piperidin-1-yl)phenyl)amino)pyrimidin-4-yl)amino)-2,3-dihydrobenzofuran-5-yl)methanesulfonamide] | 25 to 100 | 25 to 100 | 1 to 25 | 1 to 25 | 1 to 25 | 100 to 500
7 | COc1cc(N2CCC(N3CCC(C(F)(F)F)CC3)CC2)c(C)cc1Nc1ncc(Br)c(Nc2cc3c(cc2NS(C)(=O)=O)CCO3)n1 [Example 245, N-(6-((5-bromo-2-((2-methoxy-5-methyl-4-(4-(trifluoromethyl)-[1,4′-bipiperidin]-1′-yl)phenyl)amino)pyrimidin-4-yl)amino)-2,3-dihydrobenzofuran-5-yl)methanesulfonamide] | 2000 to 10000 | 25 to 100 | 1 to 25 | 100 to 500 | 1 to 25 | 2000 to 10000
8 | CN1CCN(C2CCN(c3ccc(Nc4ncc(Br)c(Nc5cc6c(cc5NS(C)(=O)=O)CCO6)n4)c(Cl)c3)CC2)CC1 [Example 246] | 500 to 2000 | 100 to 500 | 1 to 25 | 100 to 500 | 1 to 25 | 2000 to 10000
9 | CN1CCN(C2CCN(c3ccc4cc(Nc5ncc(Br)c(Nc6cc7c(cc6NS(C)(=O)=O)CCO7)n5)ccc4n3)CC2)CC1 [Example 247, N-(6-((5-bromo-2-((2-(4-(4-methylpiperazin-1-yl)piperidin-1-yl)quinolin-6-yl)amino)pyrimidin-4-yl)amino)-2,3-dihydrobenzofuran-5-yl)methanesulfonamide] | 500 to 2000 | 100 to 500 | 100 to 500 | 25 to 100 | 100 to 500 | 2000 to 10000
10 | COc1cc(N2CCC(N3CCN(C)CC3)CC2)c(C)cc1Nc1ncc(Cl)c(Nc2cc3c(cc2N(C)S(C)(=O)=O)CCO3)n1 [Example 248, N-(6-((5-chloro-2-((2-methoxy-5-methyl-4-(4-(4-methylpiperazin-1-yl)piperidin-1-yl)phenyl)amino)pyrimidin-4-yl)amino)-2,3-dihydrobenzofuran-5-yl)-N-methylmethanesulfonamide] | 100 to 500 | 25 to 100 | 1 to 25 | 1 to 25 | 1 to 25 | 2000 to 10000
11 | COc1cc(N2CCC(N3CCN(C)CC3)CC2)c(Cl)cc1Nc1ncc(Cl)c(Nc2cc3c(cc2N(C)S(C)(=O)=O)CCO3)n1 [Example 249, N-(6-((5-chloro-2-((5-chloro-2-methoxy-4-(4-(4-methylpiperazin-1-yl)piperidin-1-yl)phenyl)amino)pyrimidin-4-yl)amino)-2,3-dihydrobenzofuran-5-yl)-N-methylmethanesulfonamide] | 100 to 500 | 25 to 100 | 1 to 25 | 1 to 25 | 1 to 25 | 2000 to 10000
12 | COc1cc(N2CCC(N3CCN(C)CC3)CC2)c(C)cc1Nc1ncc(Br)c(Nc2cc3c(cc2N(C)S(C)(=O)=O)CCO3)n1 [Example 250, N-(6-((5-bromo-2-((2-methoxy-5-methyl-4-(4-(4-methylpiperazin-1-yl)piperidin-1-yl)phenyl)amino)pyrimidin-4-yl)amino)-2,3-dihydrobenzofuran-5-yl)-N-methylmethanesulfonamide] | 100 to 500 | 1 to 25 | 1 to 25 | 1 to 25 | 1 to 25 | 2000 to 10000
13 | Cc1cc(Nc2ncc(Br)c(Nc3cc4c(cc3N(C)S(C)(=O)=O)CCO4)n2)c(Cl)cc1N1CCC(N2CCN(C)CC2)CC1 [Example 251, N-(6-((5-bromo-2-((2-chloro-5-methyl-4-(4-(4-methylpiperazin-1-yl)piperidin-1-yl)phenyl)amino)pyrimidin-4-yl)amino)-2,3-dihydrobenzofuran-5-yl)-N-methylmethanesulfonamide] | 100 to 500 | 25 to 100 | 1 to 25 | 1 to 25 | 25 to 100 | 2000 to 10000
14 | COc1cc(N2CCC(N3CCN(C)CC3)CC2)c(Cl)cc1Nc1ncc(Br)c(Nc2cc3c(cc2N(C)S(C)(=O)=O)CCO3)n1 [Example 252, N-(6-((5-bromo-2-((5-chloro-2-methoxy-4-(4-(4-methylpiperazin-1-yl)piperidin-1-yl)phenyl)amino)pyrimidin-4-yl)amino)-2,3-dihydrobenzofuran-5-yl)-N-methylmethanesulfonamide] | 25 to 100 | 25 to 100 | 1 to 25 | 1 to 25 | 1 to 25 | 2000 to 10000
15 | CN1CCN(C2CCN(c3cc(Cl)c(Nc4ncc(Br)c(Nc5cc6c(cc5N(C)S(C)(=O)=O)CCO6)n4)cc3Cl)CC2)CC1 [Example 253, N-(6-((5-bromo-2-((2,5-dichloro-4-(4-(4-methylpiperazin-1-yl)piperidin-1-yl)phenyl)amino)pyrimidin-4-yl)amino)-2,3-dihydrobenzofuran-5-yl)-N-methylmethanesulfonamide] | 500 to 2000 | 1 to 25 | 25 to 100 | 25 to 100 | 25 to 100 | 100 to 500
16 | CCc1cc(Nc2ncc(Br)c(Nc3cc4c(cc3N(C)S(C)(=O)=O)CCO4)n2)c(OC)cc1N1CCC(N2CCN(C)CC2)CC1 [Example 254, N-(6-((5-bromo-2-((5-ethyl-2-methoxy-4-(4-(4-methylpiperazin-1-yl)piperidin-1-yl)phenyl)amino)pyrimidin-4-yl)amino)-2,3-dihydrobenzofuran-5-yl)-N-methylmethanesulfonamide] | 500 to 2000 | 1 to 25 | 25 to 100 | 1 to 25 | 25 to 100 | 500 to 2000
17 | COc1cc(N2CCC(N3CCN(C(F)(F)F)CC3)CC2)c(C)cc1Nc1ncc(Br)c(Nc2cc3c(cc2N(C)S(C)(=O)=O)CCO3)n1 [Example 255, N-(6-((5-bromo-2-((2-methoxy-5-methyl-4-(4-(4-(trifluoromethyl)piperazin-1-yl)piperidin-1-yl)phenyl)amino)pyrimidin-4-yl)amino)-2,3-dihydrobenzofuran-5-yl)-N-methylmethanesulfonamide] | 2000 to 10000 | 25 to 100 | 100 to 500 | 25 to 100 | 100 to 500 | 2000 to 10000
